Values of other authors as cited in paper PMC6156206 (Molecular Imaging, 2018).

How the values were obtained:
[1] = phase 1/1b safety profile analysis
[2] = tested on: BRAF^V600E-mutant melanoma xenografts; conditions: oral, 30-100 mg/kg, twice daily, without any adverse effects
[3] = tested on: P-gp/BCRP

SMILES | Tolerable dose in patients [1] | Antitumor effect in xenografts [2] | Substrate for the drug efflux transporter system P-gp/BCRP [3]
COc1cc2ncnc(Oc3cccc(NC(=O)Nc4cc(C(C)(C)C(F)(F)F)on4)c3)c2cc1OC.Cl [CEP-32496, 1-(3-(6,7-dimethoxyquinazolin-4-yloxy)phenyl)-3-(5-(1,1,1-trifluoro-2-methylpropan-2-yl)isoxazol-3-yl)urea hydrochloride] | up to 350 mg/d | tumor stasis and regression | 
CNC(=O)c1cc(Oc2ccc(NC(=O)Nc3ccc(Cl)c(C(F)(F)F)c3)cc2)ccn1 [sorafenib] |  |  | substrate for the drug efflux transporter system P-gp/BCRP
